Results as given in patent US20060099170A1, “Compositions for inducing increased levels of beta-chemokines and methods of use therefor” (priority 2002, published 2006).
Read-outs that look alike come from different tables or passages of the source.

Experiments:
[1] = tested on: five R5 strains of HIV-1; experiment: Antiviral activity of low concentrations of RAPA in PBMCs, panel of R5 strains; type: cell-based; details: Human immunodeficiency virus 1, PBMC
Description: (§1) The following viruses were used in infection experiments, including HIV-1 IIIb, HIV-1 ADA, HIV-1 BaL, HIV-1 JRFL, HIV-1 JRCSF, and HIV-1 SF162. HIV-1 IIIb is a T cell line-adapted lab strain that uses CXCR4 for entry into cells, whereas the rest are isolates that use CCR5.
(§2) For infection of PBMCs, fresh donor PBMCs were cultured for 7 days in medium containing IL-2. On day 7, cells were exposed to the virus for 3 h. Nonadsorbed virus was removed by washing cells with PBS three times. Infected cells were cultured in IL-2 medium. Infection of MDMs was carried out as described before (Pemo, et al. 1993). Unless otherwise indicated, PBMCs were infected by using a moi of 0.001, and monocyte-derived macrophages (MDMs) were infected by using a moi of 0.002. Virus growth was monitored in culture supernatants by measuring p24 antigen levels by ELISA (NEN) or by measuring viral RT activity in an RT assay (Willey, et al., 1988).
RAPA at 0.01 nM inhibited R5 HIV-1 by 10-64% depending on the strains, whereas 0.1 nM RAPA inhibited virus replication by 15-85%. At 1 nM RAPA, all R5 viruses were inhibited by >90%.

[2] = tested on: PBMCs; experiment: β-chemokine levels (ELISA) in supernatants of IL-2 PBMC cultures with RAPA; type: cell-based, human
Description: RAPA was purchased from Calbiochem.
Levels of the β-chemokines MIP-1α, MIP-1β and RANTES were measured in culture supernatants by using ELISA kits (R & D Systems).
We next measured levels of the CCR5 ligands MIP-1α, MIP-1β, and RANTES in supernatants of RAPA-treated PBMC cultures. PBMCs from four donors were cultured in the presence of IL-2 and RAPA for 10 days. […] Among the different donors, RAPA-treated cultures contained 6-39-fold higher levels of MIP-1α than untreated cultures. Similarly, MIP-1β levels were increased 17-47-fold in the presence of RAPA as compared with untreated controls. […] Chemokine results obtained in two of the donors, showing disparity of RANTES levels in the presence of RAPA, are depicted in FIG. 8A.
The effect of RAPA on MIP-1β protein levels provided information regarding the mechanism by which RAPA increases β-chemokine levels. To this end, stimulated PBMCs from two normal donors and from a CCR5-null donor were cultured in the presence of RAPA as in previous experiments. MIP-1β levels in supernatants were evaluated on day 10. Representative results obtained in one of the normal donors are shown next to the results obtained on the CCR5-null donor (FIG. 8B).
PBMCs from a healthy donor were cultured in the presence of IL-2 and Rapamycin. On day 7, chemokines content in the supernatant was measured by ELISA and cell viability was determined by the MTT assay.

[3] = tested on: HIV-1 ADA; experiment: Antiviral activity of RAPA in monocyte-derived macrophages (RT assay); type: cell-based
Description: (§3) Cultures of peripheral blood mononuclear cells (PBMCs) and monocyte-derived macrophages (MDMs) were performed on normal donors as described (Poli, et al. 1993, Perno, et al., 1993). PBMCs were maintained in the presence of 100 units/ml rhIL-2 (Roche Molecular Biochemicals). Cell viability was determined by Trypan blue staining or by the MTT assay (Roche Molecular Biochemicals). RAPA was purchased from Calbiochem. The CCR5 antagonist TAK-779 was obtained from the National Institutes of Health AIDS Research and Reference Reagent Program (Rockville, Md.). CCR5 surface expression was measured on PBMCs cultured in the presence of IL-2 for 7-10 days. Staining was done as described (Lane, et al. 1999), but using CCR5 mAb 182 (R & D Systems). Background staining was determined by adding an isotype-matched control (IgG2b, R&D Systems) instead of the anti-CCR5 mAb. Data were acquired by using a FACS Calibur flow cytometer (BD Biosciences) and analyzed by using FLOWJO (Tree Star, San Carlos, Calif.).
as §2
(§4) On day 5, cells were infected with HIV-1 ADA. Infected cells were cultured in the presence of RAPA for an additional 14 days. Virus production was measured on the culture supernatants on days 7, 10, and 14 after infection.
In the above-described experiment, monocytes had been pretreated with RAPA during the 5-day differentiation period. To control for the possible interference of RAPA with the process of monocyte differentiation, a new infection experiment in which RAPA was not present during the 5-day monocyte differentiation period was designed. To this end, fresh monocytes were cultured for 5 days in the absence of RAPA. On day 5, cells were infected with HIV-1 ADA and then exposed to RAPA.

[4] = Tolerability of Rapamycin in healthy volunteers; type: in vivo, human; details: 5 healthy volunteers, 2 mg/day after 6 mg loading dose, 14 days
Description: HIV-1 has been shown in most instances to use the chemokine receptor, CCR5, as a co-receptor for entry into macrophages and CD4 lymphocytes. The natural ligands for the CCR5 co-receptor are proteins called β-Chemokines. […] To assess the activity of β-Chemokine production levels and its effects on CCR5 receptors in vivo an open-labeled, non-randomized observational trial was performed in which 5 healthy volunteers were given 2 mg/day of Rapamycin, following a 6 mg loading dose, for 14 days. Peripheral blood for determining β-Chemokines was obtained at the screening visit, days 7 and 14 of the Rapamycin dosing, and at day 28 (which was two weeks following the last dose of Rapamycin). All 5 subjects completed the study and Rapamycin was well-tolerated.

[5] = tested on: HIV-1 ADA; experiment: Antiviral activity of RAPA in PBMCs (p24); type: cell-based; details: Human immunodeficiency virus 1, PBMC
Description: as §1, §2
(§5) The antiviral activity of RAPA was assayed in PBMCs that had been cultured in the presence of RAPA for 7 days before infection. Cells were infected with the X4 HIV-1 IIIb and the R5 HIV-1 ADA strains. Infected cells were cultured in the presence of RAPA (same concentration as during pretreatment) for 7 additional days, during which time virus replication and cell viability were measured. […]

[6] = tested on: HIV-1 SF 162; experiment: Antiviral activity of RAPA in monocyte-derived macrophages; type: cell-based; details: Human immunodeficiency virus 1, Macrophage; 0.01 nM RAPA; data not shown
[7] = renal transplant recipients, cited from earlier work
[8] = tested on: PBMCs; experiment: PBMC proliferation and viability (MTT assay)
Description: as §3
Donor PBMCs were cultured in the presence of IL-2 and RAPA (10-fold serial dilutions, from 10^4 to 0.01 nM).

[9] = tested on: MDMs; experiment: Cell viability of MDMs (MTT assay); type: cell-based, human; details: end of experiment (day 14)
Description: as §3, §4

[10] = tested on: HIV-1 IIIb; experiment: Antiviral activity of RAPA in PBMCs (p24); type: cell-based; details: Human immunodeficiency virus 1, IIIB, PBMC
Description: as §1, §2, §5

[11] = tested on: HIV-1; experiment: HIV-1 production upon activation of patients' resting CD4 T cells (p24 ELISA); type: cell-based; details: 5 μg/ml VE
Description: HIV-1 gene expression on latently infected resting T cells is dependent on host transcriptional factors, such as NF-κB, that are induced on activated cells. In the present study we have evaluated the in vitro effect of adding Vitamin E (VE) to cultures of patients' resting CD4 T cells under conditions of cellular activation that promote virus expression.
(§6) Blood (50 ml) was drawn from 10 patients on antiretroviral therapy, whose viral load were <400 copies/ml and whose CD4 counts were >300/μl. Resting CD4 T cells were purified by negative selection using antibody-labeled magnetic beads (Dynal, Lake Success, N.Y.). Purified cells were activated by co-culture with γ-irradiated PBMCs from normal donors in the presence of 1 μg/ml anti-CD3 antibody (Coulter, Miami, Fla.) and 100 units/ml rhIL-2 (Roche, Indianapolis, Ind.). Cultures were set up in the absence or continuous presence of 5 μg/ml of VE (Vitamin E succinate, Sigma, St. Louis, Mo.), with medium replenishment every 3 or 4 days. Cultures were maintained for 14 days. Virus production was monitored by measuring p24 antigen (NEN, Boston, Mass.) in the culture supernatants on days 7 and 14. Cell viability was measured by trypan blue staining.

[12] = tested on: resting CD4 T cells; experiment: Cell viability / proliferation of patients' CD4 T cell cultures (trypan blue); type: cell-based, human; details: 5 μg/ml VE, days 7 or 14; data not shown
Description: as §6

[13] = tested on: activated PBMCs; experiment: β-chemokine levels in activated PBMCs cultured with Vitamin E; type: cell-based, human; details: day 6 after addition of Vitamin E, IL-2, FIG. 12
Description: B-chemokines levels were measured in activated PBMCs cuftured in the presence of Vitamin E, an antioxidant reported to induce G1 cycle arrest. PBMCs from a healthy donor were activated under the presence of the indicated stimuli for 72 h. Activated cells were cultured in the presence of IL-2 and Vitamin E. Supernatants were evaluated for β-chemokine content on day 6 after addition of Vitamin E. Cell viability was measured by MTT assay.

[14] = IL-2 and RAPA for 10 days, four donors

For CO[C@H]1C[C@@H]2CC[C@@H](C)[C@@](O)(O2)C(=O)C(=O)N2CCCC[C@H]2C(=O)O[C@H]([C@H](C)C[C@@H]2CC[C@@H](O)[C@H](OC)C2)CC(=O)[C@H](C)/C=C(\C)[C@@H](O)[C@@H](OC)C(=O)[C@H](C)C[C@H](C)/C=C/C=C/C=C/1C [RAPA, rapamycin], which inhibition at 10 pM ([1]; read-out: inhibition of R5 HIV-1) is on record?
The inhibition at 10 pM was 10 to 64%.

What about the inhibition at 0.001 µM ([1]; read-out: inhibition of all R5 viruses) of the same molecule?
The inhibition at 0.001 µM was greater than 90%.

What about the inhibition at 0.0001 µM ([1]; read-out: inhibition of virus replication (R5 HIV-1)) of the same molecule?
Its inhibition at 0.0001 µM is 15 to 85%.

What about the MIP-1β levels increase ([2]; CCR5-null donor, day 10) of the same molecule?
The MIP-1β levels increase was 1.2 fold.

What about the “MIP-1α levels, RAPA-treated versus untreated cultures” value [2, 14] of the same molecule?
Its value is 6-39 fold.

And the “MIP-1β levels increase compared with untreated controls” value [2, 14]?
Its value is 17-47 fold.

And the “MIP-1β protein increase compared with RAPA-untreated control” value ([2]; normal donor, day 10)?
Its value is 9.3 fold.

And the “inhibition of virus replication” value ([3]; 1 nM RAPA added after infection, no RAPA during differentiation, day 14, two donors)?
Its value is roughly 80%.

And the inhibition at 0.001 µM ([3]; Human immunodeficiency virus 1, Macrophage, 336 h, 1 nM RAPA added after infection, no RAPA during differentiation, day 14, two donors, read-out: inhibition of virus replication)?
Its inhibition at 0.001 µM is roughly 60%.

What about the inhibition at 10 pM ([3]; Human immunodeficiency virus 1, Macrophage, 0.01 nM RAPA, data not shown) of the same molecule?
Its inhibition at 10 pM is 64%.

What about the “inhibition of virus production” value ([3]; RAPA 0.1-100 nM, day 14, monocytes pretreated 5 days) of the same molecule?
The value was 70-95%.

And the tolerability [4]?
The tolerability was “well-tolerated”.

What about the inhibition at 0.01 µM ([5]; 10 nM RAPA, average of seven experiments (range of 88-97%)) of the same molecule?
Its inhibition at 0.01 µM is 91%.

And the inhibition at 0.1 µM ([5]; 100 nM RAPA, seven experiments (range of 92-99%))?
The inhibition at 0.1 µM was 94%.

And the inhibition at 10 pM [6]?
The inhibition at 10 pM was 45%.

What about the therapeutic through levels ([7]; daily 2 mg) of the same molecule?
The therapeutic through levels was 9.3 ± 4.4 nM.

And the therapeutic through levels ([7]; daily 5 mg)?
The therapeutic through levels was 18.9 ± 8 nM.

And the “drug concentrations at which reduced proliferation was detected” value ([8]; IL-2, MTT assay on day 7)?
The value was no less than 1 nM.

What about the “drug concentrations at which drug toxicity was observed” value ([8]; data not shown) of the same molecule?
Its value is “above 1 nM”.

And the “RAPA concentrations at which cell viability was reduced” value [9]?
The value was greater than 10 nM.

And the inhibition at 0.01 µM ([10]; 10 nM RAPA (range of 5-25%))?
The inhibition at 0.01 µM was 13.5%.

What about the inhibition at 0.1 µM ([10]; 100 nM RAPA (range 29-60%)) of the same molecule?
Its inhibition at 0.1 µM is 32%.

For Cc1c(C)c2c(c(C)c1O)CC[C@@](C)(CCC[C@H](C)CCC[C@H](C)CCCC(C)C)O2 [Vitamin E, alpha-tocopherol], which “virus production, mean Log p24” value ([11]; day 14, 9 patients, log of p24 pg/ml, absence of VE 3.58, p=0.016) is on record?
Its value is 2.06.

And the “cultures with positive virus isolation” value ([11]; day 14, untreated 9/10)?
The value was 7/10.

What about the “cell viability and cell proliferation” value [12] of the same molecule?
The value was “Neither cell viability nor cell proliferation was affected”.

And the “levels of β-chemokines” value [13]?
Its value is “increased levels of β-chemokines”.
